From patent publication EP4786483A1, “AURISTATIN DERIVATIVE AND ANTIBODY-DRUG CONJUGATE THEREOF” (priority 2023, dated 2025)

Assays:
Type in all cases: cell-based
[1] = test system: human breast cancer cells KPL-4; assay: Cytotoxicity test for compounds (CellTiter-Glo cell proliferation inhibition); conditions: Homo sapiens, KPL4, 72 h; 3 days of incubation; CellTiter-Glo; read-out: KPL-4/IC50
Experimental: (§1) Biological Test Example 1: Cytotoxicity Test for Compounds
(§2) • 96-well clear flat-bottom white plate (Corning, #3610) • RPMI1640 culture medium (Gibco, #A10491-01) • Fetal Bovine Serum (Sigma-Aldrich, #F8687-500ML) • CellTiter-Glo® Luminescent Cell Viability Assay (Promega, # G7572/G7571)
(§3) Human gastric cancer cells NCI-N87 (ATCC, Cat. No.: CRL-5822), human breast cancer cells MDA-MB-468 (Cell Bank of the Committee for Type Culture Collection of the Chinese Academy of Sciences, Cat. No.: TCHu136), and human breast cancer cells KPL-4 (Nanjing Cobioer Biosciences Co., Ltd., Cat. No.: CBP60379) were washed with PBS and digested with 0.25% Trypsin-EDTA trypsin for about 3-10 min. The digestion was terminated with a complete cell culture medium. The cells were centrifuged at 1000 rpm for 5 min, and the supernatant was discarded. The cells were resuspended in a complete cell culture medium. The cell number was counted using a cell counter, and the cells were adjusted to the desired density. 90.0 µL of the cell suspension was added to each well at 3000 cells/well. The cell plate was incubated in a cell incubator at 37°C with 5% CO2 overnight.
(§4) In the experiment, a DMSO control group and test sample groups were set. The cell plate was removed from the incubator to observe cell adherence. After the cells adhered, 10.00 µL of the sample (starting from a final concentration of 10 µM, 5-fold dilution, 9 concentrations) was added to each well. After the mixture was gently shaken uniformly, the plate was incubated in the incubator.
(§5) After 3 days of incubation, 100.0 µL/well of CellTiter-Glo™ (Promega, Cat. No.: G7572/G7571) working solution was added. The plate was shaken on a thermostatic shaker to lyse the cells. After 10 min, the plate was read on a microplate reader.
(§6) Data analysis: GraphPad Prism 8.0 software was used to plot a graph with the Log value of the sample concentration as the abscissa and the Inhibition% as the ordinate. The data were analyzed by Nonlinear regression (curve fit) to obtain the IC50 value of each test sample. Table 1. Inhibition activity of compounds of the present disclosure on cell proliferation

[2] = test system: Human gastric cancer cells NCI-N87; assay: as above; conditions: Homo sapiens, NCI-N87, 72 h, 3 days of incubation; CellTiter-Glo; read-out: NCI-87/IC50
Experimental: as §1, §2, §3, §4, §5, §6

[3] = test system: human breast cancer cells MDA-MB-468; assay: as above; conditions: Homo sapiens, MDA-MB-468, 72 h, 3 days of incubation; CellTiter-Glo; read-out: MDA-MD-468/IC50
Experimental: as §1, §2, §3, §4, §5, §6

[4] = test system: CD34^+ hematopoietic stem/progenitor cells; assay: Hematologic toxicity of compounds (CD34+ HSC viability, CTG); conditions: 240 h; cytotoxic drugs; treatment for 10 days; CTG cell viability
Experimental: Experimental objective: The effects of cytotoxic drugs on the differentiation and development of CD34^+ hematopoietic stem/progenitor cells into the megakaryocytic lineage were investigated, so as to evaluate their potential hematologic toxicity of causing thrombocytopenia.
Experimental design: After resuscitation, bone marrow-mobilized peripheral blood-derived HSCs were seeded at 2000 cells/well/180 µL in an ultra-low attachment 96-well round-bottom plate and stabilized for 4 h. The cells were treated with compounds by performing a 5-fold gradient dilution starting from the highest dose of 1 µM, resulting in a total of 9 concentration points, and this treatment was maintained continuously for 10 days. Cell viability was detected using the CTG reagent (CellTiter-Glo luminescent cell viability detection kit, manufacturer: Promega, Cat. No.: G7571). Table 2. Hematologic toxicity test results of cytotoxic drugs

Structure (SMILES) | IC50 [1] [nM] | IC50 [2] [nM] | IC50 [3] [nM] | IC50 [4] [nM]
CC[C@H](C)[C@@H]([C@@H](CC(=O)N1CCC[C@H]1[C@H](OC)[C@@H](C)C(=O)N(CCc1cccc(N)c1)OC)OC)N(C)C(=O)[C@@H](NC(=O)[C@H](C(C)C)N(C)C)C(C)C [Example 7, (S)-N-((3R,4S,5S)-1-((S)-2-((1R,2R)-3-((3-aminophenethyl)(methoxy)amino)-1-methoxy-2-methyl-3-oxopropyl)pyrrolidin-1-yl)-3-methoxy-5-methyl-1-oxoheptan-4-yl)-2-((S)-2-(dimethylamino)-3-methylbutanamido)-N,3-dimethylbutanamide] | 0.45 | 0.89 | 13.4 | 0.144
C#CCN(CCc1cccc(N)c1)C(=O)[C@H](C)[C@@H](OC)[C@@H]1CCCN1C(=O)C[C@@H](OC)[C@H]([C@@H](C)CC)N(C)C(=O)[C@@H](NC(=O)[C@H](C(C)C)N(C)C)C(C)C [Example 6, (S)-N-((3R,4S,5S)-1-((S)-2-((1R,2R)-3-((3-aminophenethyl)(prop-2-yn-1-yl)amino)-1-methoxy-2-methyl-3-oxopropyl)pyrrolidin-1-yl)-3-methoxy-5-methyl-1-oxoheptan-4-yl)-2-((S)-2-(dimethylamino)-3-methylbutanamido)-N,3-dimethylbutanamide] | 2.96 | 3.93 | 12.6 | 3.96
